In patent US9012655B2, “Antimicrobial/adjuvant compounds and methods” (Denouamed, Inc., priority 2011, dated 2015):
In brackets after ≈: the same amount, converted by molar mass.

Key:
Assay type in all cases: cell-based
E. coli D22 = experiment: MIC, NCCLS M7-A6 broth microdilution, E. coli D22; settings: Escherichia coli, D22, 16 to 20 h, 35 degrees Celsius
Outline: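 Broth microdilution per NCCLS M7-A6 in cation-adjusted Mueller-Hinton broth, doubling dilutions, inoculum 5×10^5 CFU/mL, DMSO controls included. Read after 16–20 h at 35 °C in ambient air; MIC is lowest concentration preventing visible growth.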

Ps. aeruginosa = experiment: Combination MICs for antibiotic adjuvant potential; settings: Pseudomonas aeruginosa, compound alone, read-out: standalone MIC
Description: Susceptibilities to the compounds were determined using the National Committee for Clinical Laboratory Standards (NCCLS) M7-A6 broth microdilution method. Cation-adjusted Mueller-Hinton broth (Ca^2+, 25 μg/mL; Mg^2+, 12.5 μg/mL) microdilution panels were prepared to contain antimicrobial doubling dilution concentrations of an appropriate range. DMSO (dimethylsulfoxide) controls were incorporated into the panel to mimic the quantity of DMSO used in dissolving some of the compounds at the higher concentrations. Each final panel well volume was 100 μL with a bacterial inoculum of 5×10^5 CFU (colony forming units)/mL of the relevant bacterium. Panels were read following 16 to 20 h of incubation at 35 degrees Celsius in ambient air. The MIC (minimum inhibitory concentration) was defined as the lowest concentration of antimicrobial inhibiting visible growth.
Generally following the procedure of Example 9, MICs of ampicillin, erythromycin, and azithromycin were determined against Ps. aeruginosa. Parallel to this effort, solutions were prepared which were identical. To each of these were added 0.5 μL of stock solution of a given compound of the present invention, then diluted to produce a final concentration of 125 μM, 60 μM, and/or 30 μM for determination of adjuvant activity. Compounds were determined to be antibiotic adjuvants if the mixture produced a lower MIC than that of the antibiotic agent alone.

[1] = test system: Staphylococcus epidermidis NRS7; experiment: MIC panel of challenge pathogens (CLSI); settings: Staphylococcus epidermidis NRS7; for MIC: read-out: 100% inhibition; for MIC50: read-out: MIC50 (50%); for MIC80: read-out: MIC80 (80%)
Outline: (§1)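 Broth microdilution per CLSI guidelines. Final inoculum 2-8×10^5 CFU/ml, compounds serially two-fold diluted from 128 mg/L top concentration. Incubated in the dark at 30-37° C for 24-48 h, aerobic or anaerobic as appropriate. MIC read visually as 100% inhibition endpoint; MIC50 and MIC80 also reported.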

[2] = test system: Staphylococcus aureus NRS384; experiment: MIC panel of challenge pathogens (CLSI); settings: Staphylococcus aureus NRS384; for MIC: read-out: 100% inhibition; for MIC50: read-out: MIC50 (50%); for MIC80: read-out: MIC80 (80%)
Outline: as §1

[3] = test system: Staphylococcus aureus NRS2 (ATCC700698); experiment: MIC panel of challenge pathogens (CLSI); settings: Staphylococcus aureus NRS2 (ATCC700698); for MIC: read-out: 100% inhibition; for MIC50: read-out: MIC50 (50%); for MIC80: read-out: MIC80 (80%)
Outline: as §1

[4] = test system: Enterococcus faecalis ATCC29212; experiment: MIC panel of challenge pathogens (CLSI); settings: Enterococcus faecalis ATCC29212; for MIC: read-out: 100% inhibition; for MIC50: read-out: MIC50 (50%); for MIC80: read-out: MIC80 (80%)
Outline: as §1

[5] = test system: Staphylococcus aureus NRS1 (ATCC700699); experiment: MIC panel of challenge pathogens (CLSI); settings: Staphylococcus aureus NRS1 (ATCC700699); for MIC: read-out: 100% inhibition; for MIC50: read-out: MIC50 (50%); for MIC80: read-out: MIC80 (80%)
Outline: as §1

[6] = test system: Staphylococcus epidermidis NRS122; experiment: MIC panel of challenge pathogens (CLSI); settings: Staphylococcus epidermidis NRS122; for MIC: read-out: 100% inhibition; for MIC50: read-out: MIC50 (50%); for MIC80: read-out: MIC80 (80%)
Outline: as §1

[7] = test system: Staphylococcus aureus AUR60 7005; experiment: MIC panel of challenge pathogens (CLSI); settings: AUR607005, Staphylococcus aureus AUR60 7005; for MIC: read-out: 100% inhibition; for MIC50: read-out: MIC50 (50%); for MIC80: read-out: MIC80 (80%)
Outline: as §1

[8] = test system: Staphylococcus aureus NRS383; experiment: MIC panel of challenge pathogens (CLSI); settings: Staphylococcus aureus NRS383; for MIC: read-out: 100% inhibition; for MIC50: read-out: MIC50 (50%); for MIC80: read-out: MIC80 (80%)
Outline: as §1

[9] = test system: Staphylococcus aureus AUR59 7005; experiment: MIC panel of challenge pathogens (CLSI); settings: AUR597005, Staphylococcus aureus AUR59 7005; for MIC: read-out: 100% inhibition; for MIC50: read-out: MIC50 (50%); for MIC80: read-out: MIC80 (80%)
Outline: as §1

[10] = test system: Staphylococcus aureus AUR131 007035; experiment: MIC panel of challenge pathogens (CLSI); settings: AUR131007035, Staphylococcus aureus AUR131 007035; for MIC: read-out: 100% inhibition; for MIC50: read-out: MIC50 (50%); for MIC80: read-out: MIC80 (80%)
Outline: as §1

[11] = test system: Enterococcus faecium ATCC700221; experiment: MIC panel of challenge pathogens (CLSI); settings: Enterococcus faecium ATCC700221; for MIC: read-out: 100% inhibition; for MIC50: read-out: MIC50 (50%); for MIC80: read-out: MIC80 (80%)
Outline: as §1

| SMILES | MIC (E. coli D22) | MIC [1] | MIC50 [1] | MIC80 [1] | MIC [2] | MIC50 [2] | MIC80 [2] | MIC [3] | MIC50 [3] | MIC80 [3] | MIC [4] | MIC50 [4] | MIC80 [4] | MIC [5] | MIC50 [5] | MIC80 [5] | MIC [6] | MIC50 [6] | MIC80 [6] | MIC [7] | further results |
| --- | --- | --- | --- | --- | --- | --- | --- | --- | --- | --- | --- | --- | --- | --- | --- | --- | --- | --- | --- | --- | --- |
| Clc1ccc(-c2cc(-c3nnn[nH]3)sc2-c2ccc(Cl)cc2)cc1 [DNM0487, 5-(4,5-Bis(4-chlorophenyl)thiophen-2-yl)-1H-tetrazole] | > 125 µM | 1 mg/L (≈ 2.68 µM) | 0.5 mg/L (≈ 1.34 µM) | 1 mg/L (≈ 2.68 µM) | 1 mg/L (≈ 2.68 µM) | 1 mg/L (≈ 2.68 µM) | 1 mg/L (≈ 2.68 µM) | 2 mg/L (≈ 5.36 µM) | 1 mg/L (≈ 2.68 µM) | 2 mg/L (≈ 5.36 µM) | 2 mg/L (≈ 5.36 µM) | 2 mg/L (≈ 5.36 µM) | 2 mg/L (≈ 5.36 µM) | 0.5 mg/L (≈ 1.34 µM) | 0.25 mg/L (≈ 0.67 µM) | 0.5 mg/L (≈ 1.34 µM) | 4 mg/L (≈ 10.7 µM) | 4 mg/L (≈ 10.7 µM) | 4 mg/L (≈ 10.7 µM) | 1 mg/L (≈ 2.68 µM) | MIC (Ps. aeruginosa): > 2000 µM; MIC50 [7]: 1 mg/L (≈ 2.68 µM); MIC80 [7]: 1 mg/L (≈ 2.68 µM); MIC [8]: 1 mg/L (≈ 2.68 µM); MIC50 [8]: 1 mg/L (≈ 2.68 µM); MIC80 [8]: 1 mg/L (≈ 2.68 µM); MIC [9]: 1 mg/L (≈ 2.68 µM); MIC50 [9]: 1 mg/L (≈ 2.68 µM); MIC80 [9]: 1 mg/L (≈ 2.68 µM); MIC [10]: 1 mg/L (≈ 2.68 µM); MIC50 [10]: 1 mg/L (≈ 2.68 µM); MIC80 [10]: 1 mg/L (≈ 2.68 µM); MIC [11]: 1 mg/L (≈ 2.68 µM); MIC50 [11]: 1 mg/L (≈ 2.68 µM); MIC80 [11]: 1 mg/L (≈ 2.68 µM) |
| Cc1cc(Cl)ccc1-c1cc(-c2nnn[nH]2)sc1-c1ccc(Cl)cc1C [DNM0488, 5-(4,5-Bis(4-chloro-2-methylphenyl)thiophen-2-yl)-1H-tetrazole] | 125 µM (≈ 50.2 µg/mL) | 0.5 mg/L (≈ 1.25 µM) | 0.25 mg/L (≈ 0.623 µM) | 0.25 mg/L (≈ 0.623 µM) | 0.5 mg/L (≈ 1.25 µM) | 0.5 mg/L (≈ 1.25 µM) | 0.5 mg/L (≈ 1.25 µM) | 0.5 mg/L (≈ 1.25 µM) | 0.5 mg/L (≈ 1.25 µM) | 0.5 mg/L (≈ 1.25 µM) | 0.5 mg/L (≈ 1.25 µM) | 0.5 mg/L (≈ 1.25 µM) | 0.5 mg/L (≈ 1.25 µM) | ≤ 0.25 mg/L | ≤ 0.25 mg/L | ≤ 0.25 mg/L | 2 mg/L (≈ 4.98 µM) | 1 mg/L (≈ 2.49 µM) | 2 mg/L (≈ 4.98 µM) | 0.5 mg/L (≈ 1.25 µM) | MIC50 [7]: 0.5 mg/L (≈ 1.25 µM); MIC80 [7]: 0.5 mg/L (≈ 1.25 µM); MIC [8]: 0.5 mg/L (≈ 1.25 µM); MIC50 [8]: 0.5 mg/L (≈ 1.25 µM); MIC80 [8]: 0.5 mg/L (≈ 1.25 µM); MIC [9]: 0.5 mg/L (≈ 1.25 µM); MIC50 [9]: 0.5 mg/L (≈ 1.25 µM); MIC80 [9]: 0.5 mg/L (≈ 1.25 µM); MIC [10]: 0.5 mg/L (≈ 1.25 µM); MIC50 [10]: 0.5 mg/L (≈ 1.25 µM); MIC80 [10]: 0.5 mg/L (≈ 1.25 µM); MIC [11]: 0.5 mg/L (≈ 1.25 µM); MIC50 [11]: 0.25 mg/L (≈ 0.623 µM); MIC80 [11]: 0.25 mg/L (≈ 0.623 µM) |
